Measurements reported in ChEMBL document CHEMBL4130497, “Fragment-based approach to identify IDO1 inhibitor building blocks” (Eur J Med Chem, 2017).

How the values were obtained:
[1] = target: Indoleamine 2,3-dioxygenase 1 (Homo sapiens, UniProt P14902); assay: Binding affinity to NT647 dye labeled recombinant human IDO1 (1 to 403 residues) by microscale thermophoresis method
[2] = target: Indoleamine 2,3-dioxygenase 1 (Mus musculus) (UniProt P28776); assay: Inhibition of mouse IDO1 expressed in mouse P1.HTR cells assessed as reduction in kynurenine production from L-Trp incubated for 16 hrs by HPLC method; format: cell-based
[3] = Lipophilicity, log P of the compound in n1-octanol and water by pH-metric assay; format: physicochemical; conditions: n-octanol/water
[4] = Dissociation constant, pKa of the compound; format: physicochemical

Indoleamine 2,3-dioxygenase 1, sequence (P14902 whole entry, the tested form may be a part): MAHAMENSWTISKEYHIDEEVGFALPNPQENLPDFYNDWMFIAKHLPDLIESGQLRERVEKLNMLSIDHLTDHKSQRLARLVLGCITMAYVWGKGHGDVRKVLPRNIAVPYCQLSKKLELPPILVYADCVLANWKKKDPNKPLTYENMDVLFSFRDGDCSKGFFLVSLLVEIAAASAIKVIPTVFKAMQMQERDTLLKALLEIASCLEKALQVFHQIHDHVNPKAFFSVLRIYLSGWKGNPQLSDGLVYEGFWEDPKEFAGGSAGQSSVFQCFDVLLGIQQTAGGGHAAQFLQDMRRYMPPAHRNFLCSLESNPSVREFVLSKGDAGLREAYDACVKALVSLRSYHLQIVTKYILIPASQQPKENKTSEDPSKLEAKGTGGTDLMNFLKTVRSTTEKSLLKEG
Indoleamine 2,3-dioxygenase 1 (Mus musculus), sequence (P28776 whole entry, looked up): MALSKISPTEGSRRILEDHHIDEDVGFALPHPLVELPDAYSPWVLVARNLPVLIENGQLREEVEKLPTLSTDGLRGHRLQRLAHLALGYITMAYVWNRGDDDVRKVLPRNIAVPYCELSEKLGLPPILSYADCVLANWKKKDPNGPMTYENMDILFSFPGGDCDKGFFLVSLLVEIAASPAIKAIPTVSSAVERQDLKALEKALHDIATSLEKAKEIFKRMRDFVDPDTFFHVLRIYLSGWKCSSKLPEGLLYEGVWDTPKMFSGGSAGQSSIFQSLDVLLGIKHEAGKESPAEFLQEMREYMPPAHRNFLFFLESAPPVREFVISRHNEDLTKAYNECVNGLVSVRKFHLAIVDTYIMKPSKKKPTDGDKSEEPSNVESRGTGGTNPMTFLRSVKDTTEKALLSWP

Kd [1] [µM] | Structure (SMILES) | other results
61.5 | NC(=O)c1csc(NC(=O)Cc2c[nH]c3ccccc23)c1 | 
941 | NC(S)=NNC(=O)Nc1ccc(Cl)c(Cl)c1 | 
17.8 | N=C(N)Sc1c[nH]c2ccccc12 | fold change (FC) [2]: < 0.6; logP [3]: 1.8; pKa [4]: 9.5
53.7 | O=S(=O)(NCc1cccnc1)c1ccc2ccccc2c1 | logP [3]: 2.5; pKa [4]: 4.8 to 10.3
147 | O=C(/C=C/N1CCOCC1)c1coc2ccccc12 | 
> 1000 | NC(=O)CN1CCN(c2cccc3ccccc23)C(=O)C1=O | 
169 | COC(=O)C(N)c1ccc2ccccc2c1 (stereo not given) | 
> 1000 | Cc1ccc(NCCNC(=O)c2cccc(Cl)c2)nn1 | 
240 | O=C(NCCn1ncccc1=O)c1ccc2ccccc2c1 | 
 | OC(CC1c2ccccc2-c2cncn21)C1CCCCC1 (stereo not given) | pKa [4]: 6.7
> 1000 | Cc1ccc(NCCNC(=O)c2c[nH]c3ccccc23)nn1 | 
> 500 | COc1ccc(-c2cnc(CN)[nH]2)cc1 | 
33.5 | CCc1cccc2sc(NCCN3CCOCC3)nc12 | logP [3]: 2.3; pKa [4]: 3.1 to 6.2
> 1000 | NCC(O)COCC1COc2ccccc2O1 (stereo not given) | 
774 | OC(c1nc2ccccc2[nH]1)C(O)c1nc2ccccc2[nH]1 (stereo not given) | 
96.7 | Cc1c(C)n(CC(O)CN2CCNCC2)c2ccccc12 (stereo not given) | 
86.8 | COc1ccccc1OCC(O)Cn1cnc2ccccc21 (stereo not given) | 
237 | O=C1CC(NC(=O)Cn2ccc3ccccc32)CN1 (stereo not given) | 
> 1000 | NCC(O)c1cccc2ccccc12 (stereo not given) | 
> 1000 | COc1ccccc1OCC(O)CNC1CCCC1 (stereo not given) | 

Structure (SMILES) | Kd [1] [µM] | other results
Cn1cc(C(O)CN)c2ccccc21 (stereo not given) | 97 | 
NCC(O)c1cc(Cl)cc(Cl)c1 (stereo not given) | > 1000 | 
NCCc1nc2ccc(F)cc2[nH]1 | 548 | 
